For orientation: TD50 means the 50% point of the dose-response relation for the toxic effect studied. Read a low TD50 as greater toxicity.

The values that follow come from patent US8222241B2, “Use of dimiracetam in the treatment of chronic pain” (priority 2007, dated 2012).

One data set relates to Cynomolgus monkeys. To be noted: cynomolgus monkey, in vivo, po, 2000 mg/kg/day.
Data set [1] deals with oxaliplatin-induced neuropathy. Nature of the data set: Oxaliplatin-induced neuropathy in rats, paw pressure test. The class given is in vivo, Sprague-Dawley rats. The note with it: 300 mg/kg p.o. once a day. The method, then:
Paw pressure test was performed 4 days after the last injection (Marchand F. et al. 2003, Brain Res. 980:117-120). • Taxol: taxol neuropathy was induced by intraperitoneal administration of 0.5 mg/kg once a day, on days 1, 3, 5 and 8. […] The pharmacological test was performed 14-18 days after the last taxol injection (Polomano R. C. et al. 2001, Pain 94:293-304). • Oxaliplatin: 2.4 mg/kg were injected by intraperitoneal route for 5 consecutive days followed by 2 days suspension (one cycle). A total of 3 cycles was performed, reaching a cumulative dose of 36 mg/kg (Cavaletti G. 2001, Eur. J. Cancer 37:2457-2463). The test was performed 48 h after the last oxaliplatin injection. 1.2 Antiviral-Induced Neuropathy […] The nociceptive threshold was determined with an analgesimeter (Ugo Basile, Italy), exerting a force that increases at constant rate (32 g/s) according to the method described by Leighton G. E. 1988, Br. J. Pharmacol. 93:553-560. The stimulus causing paw withdrawal was evaluated before and at different times after treatment. Results represent the mean of mechanical thresholds expressed as grams. To avoid any possible damage to the animal paw the maximum applied force was fixed at 240 g. The effect of […] evaluated in the oxaliplatin-induced neuropathy model after repeated administration with the paw pressure test.

The conditions of data set [2]: oral doses greater than 10 mg/kg (J. Med. Chem., 1993, 36:4214-4220); cited from earlier work.
In another data set the test system is rats motor coordination. Nature of the data set: Motor coordination in rats (rotarod). The format is in vivo, Sprague Dawley rats. The protocol:
The rotarod test allows the evaluation of the effects of a compound on motor coordination. Adult male Sprague Dawley rats (200-220 g, supplier Harlan, Milan) were placed on a plastic rod 6 cm in diameter and 35 cm in length, rotating at constant speed (16 rpm) at a height of 25 cm. The rod is divided in 4 equal sections, thus up to 4 animals may be tested simultaneously. The animals were required to walk against the motion of the rotating drum over 30 seconds. The time taken to fall off the rotarod was recorded as number of falls in 30 seconds, following the method of Vaught et al. 1985, Neuropharmacology 24:211-216. In each experiment motor coordination is measured before (pre-test) and after administration of the tested compound. Rats scoring less than 3 and more than 6 falls in the pretest are rejected.

The test system of data set [3] is ddC-induced neuropathy. Nature of the data set: ddC-induced (antiviral-induced) neuropathy, von Frey test. The class given is in vivo, Sprague Dawley rats. The note with it: 100 mg/kg. The protocol: (§1) Adult male Sprague Dawley rats (150-200 g, supplier Harlan) were treated by intravenous route with a single administration of 25 mg/kg of nucleoside reverse transcriptase inhibitors ddC (2′,3′-dideoxycytidine) or d4T (2′,3′-didehydro-3′-deoxythymidine). Administration of these anti-HIV drugs induced a marked allodynic response to a mechanical stimulus (Joseph E. K. 2004, Pain 107:147-158). The maximum reduction of the paw pressure threshold is developed between day 5 and day 10 after injection. The test was performed on day 10.
Rats (male adult Sprague Dawley rats, 150-200 g, supplier Harlan) were placed in a chamber with a mesh metal floor covered by a plastic dome that enabled the animals to walk freely, but not to jump. The mechanical stimulus was delivered in the mid-plantar skin of left hind paw using an electronic von Frey apparatus. The cut-off was fixed at 50 g, while the increasing force rate (ramp duration) was settled at 20 sec.

Data set [4] has as its system rats. Nature of the data set: Rotarod/ataxia test in rats. To be noted: p.o., rotating rod 10 rpm. The method, then:
(§2) Neurological deficits were evaluated by the inability of the rats to remain on the rotating rod (10 rpm) for the test period.

Data set [5] relates to rats. Nature of the data set: Irwin test in rats. The format is in vivo, Sprague Dawley rats. The method, then:
To verify if the administration of the compound may induce centrally mediated side effects, adult male Sprague Dawley rats (150-200 g, supplier Harlan) were treated with dimiracetam by subcutaneous and oral routes and monitored according to the “Irwin test” protocol (Irwin 1968, Psychopharmacologia 13:222-257), a systematic and quantitative procedure for assessing the behavioral and physiological modifications induced in animals by the drug treatment.
Rats were constantly monitored for 30 min after administration. Monitoring was iterated every morning at 9 a.m. for 4 days after administration.

Data set [6] deals with MIA-induced osteoarthritic pain. Nature of the data set: MIA-induced osteoarthritic pain in rats, paw pressure test. The class given is in vivo, Sprague Dawley rats. The protocol: Osteoarthritis was induced by a single administration of 2 mg (in a volume of 25 μl) of sodium 2-iodoacetate into the left knee joint of anaesthetized rats (male adult Sprague Dawley rats, 150-200 g, supplier Harlan) (Fernihough J. 2004, Pain 112:83-93). This treatment induces the progressive degeneration of the joint and the development of hyperalgesia, mimicking at the histological and behavioral levels what observed in humans. Pharmacological test was performed 7 days after treatment.
Mechanical hyperalgesia in rats (male adult Sprague Dawley rats, 150-200 g, supplier Harlan) was determined using the paw pressure test. The nociceptive threshold was determined with an analgesimeter (Ugo Basile, Italy), exerting a force that increases at constant rate (32 g/s) according to the method described by Leighton G. E. 1988, Br. J. Pharmacol. 93:553-560. The stimulus causing paw withdrawal was evaluated before and at different times after treatment. Results represent the mean of mechanical thresholds expressed as grams. To avoid any possible damage to the animal paw the maximum applied force was fixed at 240 g.

Another data set concerns mice. Nature of the data set: Hole board test in mice. The class given is in vivo, Swiss Webster mice. To be noted: 30 min after oral administration. The source says:
The hole board test allows to study the behavior of rodents when confronted with a new environment (Boissier J R 1964, Therapie 19:571-583). The test enables to evaluate the initial exploratory activity of the animal and its possible variations induced by drug administration.
The hole board test uses a 40 cm square plane with 16 flush-mounted cylindrical holes (diameter 3 cm) distributed 4 by 4 in an equidistant, grid-like manner. Mice (male Swiss Webster mice weighing 25-30 g, supplier Morini) are placed one by one in the center of the board and allowed to move freely, each for a period of 5 min. Two photoelectric beams, crossing the plane from mid-point to mid-point of opposite sides, and thus dividing the plane into four equal quadrants, automatically record the movements of the animals on the plane surface. Miniature photoelectric cells in each of the 16 holes record the exploration of the holes (head plunging activity) by the mice.

For data set [7], the system named is Sprague Dawley rats. To be noted: rat, in vivo, po, 2500 mg/kg/day.
Data set [8] relates to Sprague Dawley rats. The note with it: rat, in vivo, 3000 mg/kg.
For data set [9], the system named is ddC-induced neuropathy. Nature of the data set: ddC-induced neuropathy, paw pressure test. The class given is in vivo, Sprague Dawley rats. The note with it: 300 mg/kg orally. The protocol: as §1
Mechanical hyperalgesia in rats (male adult Sprague Dawley rats, 150-200 g, supplier Harlan) was determined using the paw pressure test. The nociceptive threshold was determined with an analgesimeter (Ugo Basile, Italy), exerting a force that increases at constant rate (32 g/s) according to the method described by Leighton G. E. 1988, Br. J. Pharmacol. 93:553-560. The stimulus causing paw withdrawal was evaluated before and at different times after treatment. Results represent the mean of mechanical thresholds expressed as grams. […]
Dimiracetam is a racemic compound; the two corresponding enantiomers were synthesized and separately tested in the ddC-induced neuropathy model. The two compounds were administered orally at doses of 150 and 300 mg/kg and their antihyperalgesic activity was evaluated with the paw pressure test.

Data set [10] is described as follows: Rotarod/ataxia test in rats. The note with it: rat, in vivo, po. The method, then:
as §2

[11] abbreviates: 150 mg/kg, 15-30 min after administration.

Structures are written as SMILES. Read-outs that look alike come from different tables or passages of the source.

On to `O=C1CN2C(=O)CCC2N1` (racemic) [dimiracetam, 2,5-dioxohexahydro-1H-pyrrolo[1,2-a]imidazole], for which the “tolerability, repeated dose” value with Cynomolgus monkeys and in the data set on Sprague Dawley rats [7] was “well tolerated” in each case. For the same compound, the “time after administration at which effect was statistically significant” value in data set [1] is “between 30 min and 4 h”. Moreover, the “mechanical hyperalgesia (paw pressure test)” value in [1] (starting three days before oxaliplatin treatment and during it) is recorded as “significantly reduced mechanical hyperalgesia”. Besides, in [2], the “nootropic activity, dose-response” value is reported as “tends to lower”. The “motor coordination (number of falls in 30 sec, rotarod)” value in the data set with rats motor coordination (3000 mg/kg p.o., acute) is “does not alter rats motor coordination”. The entries for the “ddC-induced allodynia (von Frey mechanical threshold)” value in the data set with ddC-induced neuropathy [3] (15-30 min after administration) and in the data set on ddC-induced neuropathy [3] (45 min after treatment) were “fully reverted ddC-induced allodynia” and “still statistically significant”, respectively. Further, the “TD25 (dose causing 25% of fallen rats)” value in the data set on rats [4] is 6000 mg/kg. The “effects on behavioral parameters (Irwin test)” value in the data set on rats [5] (1000 mg/kg by subcutaneous route) and with rats [5] (3000 mg/kg p.o.) was “did not show any effects” each time. Further, the “reversal of MIA-induced hyperalgesia (paw pressure test)” value is listed as “statistically significant effect” in data set [6] (setting [11]); “still statistically significant” in data set [6] (300 mg/kg, 60 min after administration); “fully reverted MIA-induced hyperalgesia” in [6] (300 mg/kg, between 15 and 45 min after administration). Besides, in the data set on mice (3000 mg/kg p.o.), the “curiosity (number of head plungings)” value was “does not significantly reduce”. Besides, the “spontaneous activity (number of movements of each animal on the plane)” value in the data set on mice (3000 mg/kg p.o.) was “does not significantly reduce”. Also, the “mortality, symptomatology, normal behavior, repeated dose” value with Sprague Dawley rats [7] is “did not produce any changes”. Further, the “tolerability / signs of toxicity, single dose” value with Sprague Dawley rats [8] (iv) and in the data set with Sprague Dawley rats [8] (po) was “substantially well tolerated” in each case.

Regarding `O=C1CN2C(=O)CC[C@H]2N1` (single isomer, unassigned) [(S) enantiomer], in the data set on ddC-induced neuropathy [9] (15 min after administration), the “antihyperalgesic activity (paw pressure mechanical threshold)” value is “significant effect”.

For `O=C1CN2C(=O)CC[C@@H]2N1` [(R)-dimiracetam], the “antihyperalgesic activity (paw pressure mechanical threshold)” value in the data set on ddC-induced neuropathy [9] (15-45 min after administration) is recorded as “significant reduction of the pain mechanical threshold”. Further, the “reversal of MIA-induced hyperalgesia (paw pressure test)” value in data set [6] (setting [11]) was “statistically significant effect”; in [6] (45 min after treatment, dose not restated) it was “still statistically significant”.

For `NCC1(CC(=O)O)CCCCC1` [Gabapentin, gabapentin, reference compound], in the data set with rats [4], the “TD16 (dose causing 16% of fallen rats)” value came to 1000 mg/kg. In addition, in the data set with mice (1000 mg/kg), the “curiosity (number of head plungings)” value was “statistically significant reduction” and the “spontaneous activity (number of movements of each animal on the plane)” value is “statistically significant reduction”.

Regarding `N#Cc1cccc(N2C(=O)CN3C(=O)CCC32)c1` (stereo not shown) [I-(3-cyanophenyl)-tetrahydropyrrolo[1,2-a]imidazole-2,5-dione], the “dose from which the number of falls is increased (rotarod)” value with rats motor coordination (rat, in vivo) was determined as 300 mg/kg. Moreover, the “motor coordination (number of falls in 30 sec, rotarod)” value in the data set with rats motor coordination (starting from the dose of 300 mg/kg) is reported as “significantly altered animals motor coordination”.

Regarding `CC[C@@H](C(N)=O)N1CCCC1=O` [levetiracetam], in data set [10], the TD50 was 2000 mg/kg.

On to `CC(C)C[C@H](CN)CC(=O)O` [pregabalin], for which the TD50 in [10] is 536 mg/kg.

As for `COc1cccc(C2(O)CCCCC2CN(C)C)c1` (stereo not shown) [tramadol], in [10], the TD50 was 253 mg/kg.
